This is an account of results in patent US5719145A, “Amidine derivatives and platelet aggregation inhibitor containing the same” (Mitsui Toatsu Chemicals, Inc., priority 1996, dated 1998).

Where a name gives a salt, the structure may show the parent alone. A value given as a limit tells only on which side of the number the result lay.

The first experiment concerns guinea pig platelets (platelet-rich plasma). In words: Inhibition against platelet aggregation ability after oral administration in guinea pig. The format is in vivo. As to conditions: Cavia porcellus, 1 h, oral administration: 37 μmol/kg, blood collected after an hour, ADP 5 μM, read-out: Aggregation inhibiting rate (%). Here is the method:
Experiment for inhibition against platelet aggregation ability after oral administration The specimen drug was dissolved or suspended at a concentration of 18.5 μmol/ml in a physiological saline containing 0.5% of Tween 80. […] A physiological saline containing 0.5% of Tween 80 was similarly administered as a control. […] The blood mixture was centrifuged at 800 r.p.m. for 20 minutes at room temperature to obtain PRP in the upper layer. The lower layer was further centrifuged at 3000 r.p.m. for 15 minutes to obtain PPP in upper layer. […] Platelet aggregation ability was measured according to the method for measuring in vitro platelet aggregation. […] HEMA TRACER 1 (manufactured by NKK Co.). After incubation of PRP at 37° C. for 2 minutes, a physiological saline (30 μl) was added. […] An inhibiting ratio was obtained by comparing the maximum aggregation of the specimen drug group with that of control.
In the case of `C#CCNC(=N)c1ccc(C(=O)Nc2ccc3c(c2)CC(CC(=O)OCC)CC3)cc1` (single isomer, unassigned) [Example 45, ethyl (-)-7-[[4-(N^2-propargylamidino)benzoyl]amino]-1,2,3,4-tetrahydronaphthalene-2-acetate hydrochloride], the inhibition at 37 µmol/kg is over 90%.

For `CCOC(=O)CC1CCc2ccc(NC(=O)c3ccc(C(=N)N4CCOCC4)cc3)cc2C1` (single isomer, unassigned) [Example 47, ethyl (-)-7-[[4-(morpholinoiminomethyl)benzoyl]amino]-1,2,3,4-tetrahydronaphthalene-2-acetate hydrochloride], the inhibition at 37 µmol/kg is over 90%.

Turning to `C#CCNC(=N)c1ccc(C(=O)Nc2ccc3c(c2)CC(CC(=O)OCC)CO3)cc1` (single isomer, unassigned) [Example 49, ethyl (-)-6-[[4-(N^2-propargylamidino)benzoyl]amino]chroman-3-acetate hydrochloride], the inhibition at 37 µmol/kg was over 90%.

Consider `CCOC(=O)CC1COc2ccc(NC(=O)c3ccc(C(=N)N4CCOCC4)cc3)cc2C1` (single isomer, unassigned) [Example 51, hydrochloride], for which the inhibition at 37 µmol/kg is over 90%.

For `CCOC(=O)CC1CCc2ccc(NC(=O)c3ccc(C(=N)N4CCOCC4)cc3)cc2C1` (centres unmarked) [Example 1, ethyl 7-[[4-(morpholinoiminomethyl)benzoyl]amino]-1,2,3,4-tetrahydronaphthalene-2-acetate hydrochloride], the inhibition at 37 µmol/kg was over 90%.

Turning to `CCOC(=O)CC1COc2ccc(NC(=O)c3ccc(C(=N)N4CCOCC4)cc3)cc2C1` (centres unmarked) [Example 4, ethyl 6-[[4-(morpholinoiminomethyl)benzoyl]amino]chroman-3-acetate hydrochloride], the inhibition at 37 µmol/kg is over 90%.

Consider `CCOC(=O)CC1COc2cc(NC(=O)c3ccc(C(=N)N4CCOCC4)cc3)ccc2C1` (centres unmarked) [Example 8, ethyl 7-[[4-(morpholinoiminomethyl)benzoyl]amino]chroman-3-acetate hydrochloride], for which the inhibition at 37 µmol/kg is over 90%.

For `CCOC(=O)CC1CCc2ccc(NC(=O)c3ccc(C(=N)N4CCSCC4)cc3)cc2C1` (centres unmarked) [Example 12, ethyl 7-[[4-(thiomorpholinoiminomethyl)benzoyl]amino]-1,2,3,4-tetrahydronaphthalene-2-acetate hydrochloride], the inhibition at 37 µmol/kg is over 90%.

`C#CCN=C(N)c1ccc(C(=O)Nc2ccc3c(c2)CC(CC(=O)OCC)CC3)cc1` (centres unmarked) [Example 24, ethyl 7-[[4-(N^2-propargylamidino)benzoyl]amino]-1,2,3,4-tetrahydronaphthalene-2-acetate]: the inhibition at 37 µmol/kg was over 90%.

Regarding `CCOC(=O)CC1CCc2ccc(NC(=O)c3ccc(C(=N)NCc4ccco4)cc3)cc2C1` (centres unmarked) [Example 29, ethyl 7-[[4-[N^2-(2-furfuryl)amidino]benzoyl]amino]-1,2,3,4-tetrahydronaphthalene-2-acetate hydrochloride], the inhibition at 37 µmol/kg is over 90%.

`C#CCN(C)C(=N)c1ccc(C(=O)Nc2ccc3c(c2)CC(CC(=O)OCC)CC3)cc1` (centres unmarked) [Example 34, ethyl 7-[[4-(N^1-methyl-N^2-propargylamidino)benzoyl]amino]-1,2,3,4-tetrahydronaphthalene-2-acetate hydrochloride]: the inhibition at 37 µmol/kg is over 90%.

As to `CCOC(=O)CC1CCc2ccc(NC(=O)c3ccc(C(=N)NCc4ccccn4)cc3)cc2C1` (centres unmarked) [Example 38, ethyl 7-[[4-[N^2-(2-picolyl)amidino]benzoyl]amino]-1,2,3,4-tetrahydronaphthalene-2-acetatedihydrochloride], the inhibition at 37 µmol/kg is over 90%.

For `CCOC(=O)CC1CCc2ccc(NC(=O)c3ccc(C(=N)N)cc3)cc2C1` (centres unmarked) [Reference Example 1, ethyl 7-[(4-amidinobenzoyl)amino]-1,2,3,4-tetrahydronaphthalene-2-acetate hydrochloride, reference compound], the inhibition at 37 µmol/kg was 41%.

As for `CCOC(=O)CC1COc2ccc(NC(=O)c3ccc(C(=N)N)cc3)cc2C1` (centres unmarked) [Reference Example 3, ethyl 6-[(4-amidinobenzoyl)amino]chroman-3-acetate hydrochloride, reference compound], the inhibition at 37 µmol/kg came out at 39%.

Turning to `CCOC(=O)CC1COc2cc(NC(=O)c3ccc(C(=N)N)cc3)ccc2C1` (centres unmarked) [Reference Example 7, ethyl 7-[(4-amidinobenzoyl)amino]chroman-3-acetate hydrochloride, reference compound], the inhibition at 37 µmol/kg is 24%.

For the compound `CCCCOC(=O)N=C(N)c1ccc(C(=O)Nc2ccc3c(c2)CC(CC(=O)OCC)CC3)cc1` (centres unmarked) [Reference Example 10, ethyl 7-[[4-[N^1-(n-butoxycarbonyl)amidino]benzoyl]amino]-1,2,3,4-tetrahydronaphthalene-2-acetate, reference compound], the inhibition at 37 µmol/kg was found to be 59%.

`CCOC(=O)CN1CCc2ccc(NC(=O)c3ccc(C(=N)N)cc3)cc2C1` [Reference example 5, ethyl 7-[(4-amidinobenzoyl)amino]-1,2,3,4-tetrahydroisoquinoline-2-acetate dihydrochloride, reference compound]: the inhibition at 37 µmol/kg worked out at 10%.

For a further experiment the test system is unchanged. In words: In vitro inhibition of platelet aggregation in guinea pig (ADP-induced, PRP). It counts as cell-based. The settings on record: Cavia porcellus, ADP final concentration 5 μM, read-out: Platelet aggregation inhibitory activity in guinea pig, IC50. The method, then: In vitro experiment of platelet aggregation inhibition
1. Inhibition of platelet aggregation in Guinea pig
Blood of male guinea pig was collected with an injection syringe which contains 3.8 % sodium citrate as an anticoagulant in a ratio of 1 volume to 9 volumes of the blood. Successively, the collected blood mixture was subjected to centrifugation at 120×g for 15 minutes at room temperature to obtain platelet-rich plasma (PRP). An aliquot of PRP was further subjected to centrifugation at 1,200×g for 15 minutes to obtain platelet-poor plasma (PPP). Numbers of the platelet in PRP were measured with an automatic platelet counter: Sysmex PL-100 (manufactured by Toa Iyodenshi Co.) and PRP was diluted with PPP so as to adjust a platelet concentration to be about 300,000 particles/ μl. Platelet aggregation was measured by the following procedure with a 6 channel aggregometer: HEMA TRACER 1 (manufactured by NKK Co.).
After incubation of 240 μl of PRP at 37° C. for 2 minutes, 30 μl of the solvent of specimen as a control or of the specimen in various concentrations was added to PRP. Further 2 minutes later, 30 μl of adenosine diphosphate (final concentration: 5μM) was added to induce platelet aggregation. An inhibition percentage was obtained by comparing the maximum aggregation of the specimen drug group with that of control. […]
The term IC50 denotes the point on the concentration scale where inhibition reaches its midpoint. As to `CCOC(=O)CC1CCc2ccc(NC(=O)c3ccc(C(=N)N4CCOCC4)cc3)cc2C1` (centres unmarked) [Example 1, ethyl 7-[[4-(morpholinoiminomethyl)benzoyl]amino]-1,2,3,4-tetrahydronaphthalene-2-acetate hydrochloride], the IC50 was determined as 0.18 µM.

Take `CCOC(=O)CC1COc2ccc(NC(=O)c3ccc(C(=N)N4CCOCC4)cc3)cc2C1` (centres unmarked) [Example 4, ethyl 6-[[4-(morpholinoiminomethyl)benzoyl]amino]chroman-3-acetate hydrochloride]: the IC50 was 0.12 µM.

Consider `N=C(NCc1ccccn1)c1ccc(C(=O)Nc2ccc3c(c2)CC(CC(=O)O)CC3)cc1` (centres unmarked) [Example 39, 7-[[4-[N^2-(2-picolyl)amidino]benzoyl]amino]-1,2,3,4-tetrahydronaphthalene-2-acetic acid dihydrochloride], for which the IC50 is 0.14 µM.

For `CCOC(=O)CC1CCc2ccc(NC(=O)c3ccc(C(=N)NCc4ccncc4)cc3)cc2C1` (centres unmarked) [Example 41, ethyl 7-[[4-[N^2-(4-picolyl)amidino]benzoyl]amino]-1,2,3,4-tetrahydronaphthalene-2-acetatedihydrochloride], the IC50 was found to be 0.12 µM.

`CCOC(=O)CC1CCc2ccc(NC(=O)c3ccc(C(=N)NCCc4ccncc4)cc3)cc2C1` (centres unmarked) [Example 42, ethyl 7-[[4-[N^2-[2-(4-pyridyl)ethyl]amidino]benzoyl]amino]-1,2,3,4-tetrahydronaphthalene-2-acetate dihydrochloride]: the IC50 was 0.13 µM.

Take `CCOC(=O)CC1CCc2ccc(NC(=O)c3ccc(C(=N)N4CCN(c5ccccc5)CC4)cc3)cc2C1` (centres unmarked) [Example 43, dihydrochloride]: the IC50 stood at 0.14 µM.

On to `CCOC(=O)CC1CCc2ccc(NC(=O)c3ccc(C(=N)N4CCN(c5ccccn5)CC4)cc3)cc2C1` (centres unmarked) [Example 44, trihydrochloride], for which the 50% inhibitory concentration (IC50) amounted to 0.088 µM.

Regarding `N=C(N)c1ccc(C(=O)Nc2ccc3c(c2)CC(CC(=O)O)CC3)cc1` (centres unmarked) [Ref. Example 2, 7-[(4-amidinobenzoyl)amino]-1,2,3,4-tetrahydronaphthalene-2-acetic acid hydrochloride, reference compound], the IC50 was 0.37 µM.

For `N=C(N)c1ccc(C(=O)Nc2ccc3c(c2)CN(CC(=O)O)CC3)cc1` [Ref. Example 6, 7-[(4-amidinobenzoyl)amino]-1,2,3,4-tetrahydroisoquinoline-2-acetic acid dihydrochloride, reference compound], the IC50 came to 6.6 µM.
